From patent US8501720B2, “Method for treatment of dysmenorrhea” (Bayer Pharma AG, priority 2004, dated 2013)

Key:
[1] = pharmacokinetics of drospirenone; format: in vivo; settings: i.e. after at most a week
Description: For example, in the present study, there was, a significant reduction of edema and breast tenderness among long-cycle users in comparison with the women on the conventional 21-day monthly cycle. Thus, in the event of these symptoms being present, a regimen of 42-126 days could be recommended.

[2] = Hershberger test; cited from earlier work
[3] = in vivo; cited from earlier work

C[C@]12CCC(=O)C=C1[C@@H]1C[C@@H]1[C@H]1[C@@H]3[C@@H]4C[C@@H]4[C@@]4(CCC(=O)O4)[C@@]3(C)CC[C@@H]12 [drospirenone]
time to steady state [1]: about four | antiandrogenic properties compared with chlormadinone acetate [2]: exceed those of chlormadinone acetate | antiandrogenic properties relative to cyproterone acetate [2]: approximately one-third | half-life [3]: about 27 h
